In ChEMBL document CHEMBL5465560, “Selectivity Literature for EUbOPEN Chemogenomic Library” (2024):
Each block holds one molecule with its values, some of them ahead of it.

Experiments:
[1] = system: Hepatocyte growth factor receptor (Homo sapiens), P08581 [M1250T]; experiment: (§1) Selectivity interaction (KinomeScan (DiscoverX)) EUB0001079a MET; details: at 1 µM
[2] = system: Hepatocyte growth factor receptor (Homo sapiens), P08581 [Y1235D]; experiment: as §1; details: at 1 µM
[3] = biological target: Hepatocyte growth factor receptor (Homo sapiens, UniProt P08581); experiment: as §1; details: at 1 µM
[4] = biological target: Mitogen-activated protein kinase 1 (Homo sapiens, UniProt P28482); experiment: Selectivity interaction (Millipore kinase profiler) EUB0000124b MAPK1; details: at 10 µM
[5] = biological target: Mitogen-activated protein kinase kinase kinase kinase 5 (Homo sapiens) (UniProt Q9Y4K4); experiment: Selectivity interaction (KinomeScan (DiscoverX)) EUB0000618a MAP4K5; details: at 10 µM
[6] = biological target: T1, Activin receptor type-1B (Homo sapiens) (UniProt P36896); experiment: Selectivity interaction (KinomeScan (DiscoverX)) EUB0000618a ACVR1B; details: at 10 µM
T1 sequence (whole entry): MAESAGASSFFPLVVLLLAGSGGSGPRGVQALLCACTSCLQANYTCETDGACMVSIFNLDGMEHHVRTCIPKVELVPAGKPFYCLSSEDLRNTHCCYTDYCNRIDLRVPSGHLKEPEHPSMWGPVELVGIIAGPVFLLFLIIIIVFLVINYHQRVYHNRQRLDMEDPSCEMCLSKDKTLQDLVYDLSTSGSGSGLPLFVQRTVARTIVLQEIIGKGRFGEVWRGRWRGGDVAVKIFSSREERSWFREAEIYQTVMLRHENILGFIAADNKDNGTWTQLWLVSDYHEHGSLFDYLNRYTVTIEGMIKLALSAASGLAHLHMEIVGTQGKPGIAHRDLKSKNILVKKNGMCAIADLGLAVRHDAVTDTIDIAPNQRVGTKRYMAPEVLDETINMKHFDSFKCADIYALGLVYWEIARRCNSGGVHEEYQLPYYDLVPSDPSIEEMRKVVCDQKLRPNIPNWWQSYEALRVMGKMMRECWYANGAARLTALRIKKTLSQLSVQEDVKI

[7] = biological target: High affinity nerve growth factor receptor (Homo sapiens, UniProt P04629); experiment: Selectivity interaction (SelectScreen profiling (Invitrogen)) EUB0000607a NTRK1; details: at 2 µM
[8] = biological target: T2, Serine/threonine-protein kinase Sgk1 (Homo sapiens) (UniProt O00141); experiment: Selectivity interaction (KinomeScan (DiscoverX)) EUB0000607a SGK1; details: at 10 µM
T2 sequence (whole entry): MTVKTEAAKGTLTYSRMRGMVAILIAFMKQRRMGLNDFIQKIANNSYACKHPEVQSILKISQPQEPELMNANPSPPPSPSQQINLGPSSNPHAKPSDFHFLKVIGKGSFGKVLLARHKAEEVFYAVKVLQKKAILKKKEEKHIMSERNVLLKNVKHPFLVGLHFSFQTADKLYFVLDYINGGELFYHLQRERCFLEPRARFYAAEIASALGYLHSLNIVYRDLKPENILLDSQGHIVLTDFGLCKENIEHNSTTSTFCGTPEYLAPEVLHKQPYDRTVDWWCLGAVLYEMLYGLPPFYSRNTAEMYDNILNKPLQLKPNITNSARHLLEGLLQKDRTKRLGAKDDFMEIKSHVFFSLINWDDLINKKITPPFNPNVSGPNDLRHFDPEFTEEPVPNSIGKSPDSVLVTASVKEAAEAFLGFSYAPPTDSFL

[9] = biological target: T3, Testis-specific serine/threonine-protein kinase 1 (Homo sapiens) (UniProt Q9BXA7); experiment: Selectivity interaction (KinomeScan (DiscoverX)) EUB0001619a TSSK1B; details: at 1 µM
T3 sequence (whole entry): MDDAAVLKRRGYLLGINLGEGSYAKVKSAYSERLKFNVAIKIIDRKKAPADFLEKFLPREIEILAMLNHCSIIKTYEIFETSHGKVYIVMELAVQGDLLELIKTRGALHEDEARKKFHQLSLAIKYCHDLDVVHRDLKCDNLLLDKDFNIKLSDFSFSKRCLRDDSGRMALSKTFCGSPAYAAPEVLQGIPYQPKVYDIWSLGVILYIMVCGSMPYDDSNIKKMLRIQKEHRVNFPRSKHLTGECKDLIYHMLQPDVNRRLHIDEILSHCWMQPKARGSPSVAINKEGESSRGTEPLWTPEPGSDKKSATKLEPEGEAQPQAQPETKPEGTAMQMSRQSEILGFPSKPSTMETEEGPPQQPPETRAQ

[10] = biological target: Calcium/calmodulin-dependent protein kinase kinase 2 (Homo sapiens) (UniProt Q96RR4); experiment: Selectivity interaction (KinomeScan (DiscoverX)) EUB0000595a CAMKK2; details: at 10 µM
[11] = biological target: T4, Histone-arginine methyltransferase CARM1 (Homo sapiens) (UniProt Q86X55); details: KMS-20, at 3 µM
T4 sequence (whole entry): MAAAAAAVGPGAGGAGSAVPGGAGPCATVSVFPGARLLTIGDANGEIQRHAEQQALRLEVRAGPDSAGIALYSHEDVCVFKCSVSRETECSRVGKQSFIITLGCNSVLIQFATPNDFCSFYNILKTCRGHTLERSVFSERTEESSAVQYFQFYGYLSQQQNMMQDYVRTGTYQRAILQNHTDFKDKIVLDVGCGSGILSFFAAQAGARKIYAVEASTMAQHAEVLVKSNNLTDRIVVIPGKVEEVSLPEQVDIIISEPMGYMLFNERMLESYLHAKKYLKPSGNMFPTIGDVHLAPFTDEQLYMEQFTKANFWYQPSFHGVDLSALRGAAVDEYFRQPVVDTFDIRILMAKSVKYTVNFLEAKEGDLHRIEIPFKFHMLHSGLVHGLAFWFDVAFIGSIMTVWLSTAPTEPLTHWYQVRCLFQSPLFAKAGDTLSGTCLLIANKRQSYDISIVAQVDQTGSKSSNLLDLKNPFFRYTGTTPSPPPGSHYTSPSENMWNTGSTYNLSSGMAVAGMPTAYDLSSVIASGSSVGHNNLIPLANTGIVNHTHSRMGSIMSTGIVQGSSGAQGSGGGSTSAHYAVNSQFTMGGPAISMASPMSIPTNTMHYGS

[12] = biological target: Serine/threonine-protein kinase MARK2 (Homo sapiens) (UniProt Q7KZI7); experiment: Selectivity interaction (ActivX KiNativ screen (kinase selectivity in THP-1 cell lysates)) EUB0000639a MARK2; assay type: subcellular; details: lysate, at 0.2 µM
[13] = biological target: eIF-2-alpha kinase GCN2 (Homo sapiens) (UniProt Q9P2K8); experiment: Selectivity interaction (ActivX KiNativ screen (kinase selectivity in THP-1 cell lysates)) EUB0000639a EIF2AK4; assay type: subcellular; details: lysate, at 1 µM
[14] = biological target: Serine/threonine-protein kinase PLK3 (Homo sapiens, UniProt Q9H4B4); experiment: Selectivity interaction (ProQinase) EUB0000171b PLK3
[15] = biological target: Prostaglandin G/H synthase 1 (Homo sapiens) (UniProt P23219); experiment: Selectivity interaction (Safety Panel 44tm (Eurofins)) EUB0000162b PTGS1; details: at 10 µM
Prostaglandin G/H synthase 1 (Homo sapiens), sequence (P23219 whole entry): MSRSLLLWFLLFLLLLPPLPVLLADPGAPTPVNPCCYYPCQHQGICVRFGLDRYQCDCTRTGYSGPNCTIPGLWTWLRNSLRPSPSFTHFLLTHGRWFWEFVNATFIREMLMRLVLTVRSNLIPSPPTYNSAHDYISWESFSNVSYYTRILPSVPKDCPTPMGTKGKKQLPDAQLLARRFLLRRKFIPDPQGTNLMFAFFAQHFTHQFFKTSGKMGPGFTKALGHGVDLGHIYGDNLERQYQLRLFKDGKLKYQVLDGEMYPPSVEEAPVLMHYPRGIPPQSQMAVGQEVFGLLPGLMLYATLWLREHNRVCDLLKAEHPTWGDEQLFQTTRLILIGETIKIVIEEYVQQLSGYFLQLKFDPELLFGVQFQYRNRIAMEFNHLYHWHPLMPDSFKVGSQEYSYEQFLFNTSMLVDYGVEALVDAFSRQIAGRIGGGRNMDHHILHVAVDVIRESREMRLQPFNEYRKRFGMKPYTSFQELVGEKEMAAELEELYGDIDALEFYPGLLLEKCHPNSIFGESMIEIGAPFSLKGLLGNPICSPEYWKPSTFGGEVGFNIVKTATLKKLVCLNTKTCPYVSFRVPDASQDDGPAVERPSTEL

Serine/threonine-protein kinase PLK3, sequence (Q9H4B4 whole entry, looked up): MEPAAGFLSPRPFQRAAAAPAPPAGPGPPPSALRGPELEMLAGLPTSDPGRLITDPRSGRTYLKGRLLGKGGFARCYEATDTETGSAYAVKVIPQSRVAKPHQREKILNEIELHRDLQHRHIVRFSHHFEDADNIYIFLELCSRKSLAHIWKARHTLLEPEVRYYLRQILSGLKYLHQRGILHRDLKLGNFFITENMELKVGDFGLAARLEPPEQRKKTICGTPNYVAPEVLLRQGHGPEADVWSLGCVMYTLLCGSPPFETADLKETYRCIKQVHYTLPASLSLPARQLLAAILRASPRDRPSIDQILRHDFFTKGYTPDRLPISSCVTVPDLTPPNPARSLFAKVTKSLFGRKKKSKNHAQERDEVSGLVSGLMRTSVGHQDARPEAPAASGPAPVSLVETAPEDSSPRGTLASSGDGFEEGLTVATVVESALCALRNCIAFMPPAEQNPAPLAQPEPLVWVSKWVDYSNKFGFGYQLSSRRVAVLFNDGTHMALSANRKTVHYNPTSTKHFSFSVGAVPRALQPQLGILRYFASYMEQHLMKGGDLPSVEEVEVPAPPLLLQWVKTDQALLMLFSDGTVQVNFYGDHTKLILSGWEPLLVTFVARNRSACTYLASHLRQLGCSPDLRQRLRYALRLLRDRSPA
Calcium/calmodulin-dependent protein kinase kinase 2 (Homo sapiens), sequence (Q96RR4 2-588 limits assumed): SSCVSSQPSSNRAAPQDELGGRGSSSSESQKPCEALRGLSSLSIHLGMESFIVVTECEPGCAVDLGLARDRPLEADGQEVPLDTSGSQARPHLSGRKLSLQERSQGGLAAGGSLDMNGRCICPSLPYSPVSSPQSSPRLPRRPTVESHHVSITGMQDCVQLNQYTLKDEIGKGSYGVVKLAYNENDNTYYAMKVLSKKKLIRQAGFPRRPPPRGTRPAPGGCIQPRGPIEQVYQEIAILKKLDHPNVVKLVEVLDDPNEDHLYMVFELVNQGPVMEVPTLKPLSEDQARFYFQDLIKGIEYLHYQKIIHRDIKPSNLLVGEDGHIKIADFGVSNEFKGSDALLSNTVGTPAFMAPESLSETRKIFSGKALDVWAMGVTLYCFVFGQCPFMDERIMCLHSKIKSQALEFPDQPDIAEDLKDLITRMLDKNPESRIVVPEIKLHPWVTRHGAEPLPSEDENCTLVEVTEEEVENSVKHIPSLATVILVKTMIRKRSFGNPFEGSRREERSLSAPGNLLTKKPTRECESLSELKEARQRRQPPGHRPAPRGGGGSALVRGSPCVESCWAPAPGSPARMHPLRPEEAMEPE
eIF-2-alpha kinase GCN2 (Homo sapiens), sequence (Q9P2K8 whole entry): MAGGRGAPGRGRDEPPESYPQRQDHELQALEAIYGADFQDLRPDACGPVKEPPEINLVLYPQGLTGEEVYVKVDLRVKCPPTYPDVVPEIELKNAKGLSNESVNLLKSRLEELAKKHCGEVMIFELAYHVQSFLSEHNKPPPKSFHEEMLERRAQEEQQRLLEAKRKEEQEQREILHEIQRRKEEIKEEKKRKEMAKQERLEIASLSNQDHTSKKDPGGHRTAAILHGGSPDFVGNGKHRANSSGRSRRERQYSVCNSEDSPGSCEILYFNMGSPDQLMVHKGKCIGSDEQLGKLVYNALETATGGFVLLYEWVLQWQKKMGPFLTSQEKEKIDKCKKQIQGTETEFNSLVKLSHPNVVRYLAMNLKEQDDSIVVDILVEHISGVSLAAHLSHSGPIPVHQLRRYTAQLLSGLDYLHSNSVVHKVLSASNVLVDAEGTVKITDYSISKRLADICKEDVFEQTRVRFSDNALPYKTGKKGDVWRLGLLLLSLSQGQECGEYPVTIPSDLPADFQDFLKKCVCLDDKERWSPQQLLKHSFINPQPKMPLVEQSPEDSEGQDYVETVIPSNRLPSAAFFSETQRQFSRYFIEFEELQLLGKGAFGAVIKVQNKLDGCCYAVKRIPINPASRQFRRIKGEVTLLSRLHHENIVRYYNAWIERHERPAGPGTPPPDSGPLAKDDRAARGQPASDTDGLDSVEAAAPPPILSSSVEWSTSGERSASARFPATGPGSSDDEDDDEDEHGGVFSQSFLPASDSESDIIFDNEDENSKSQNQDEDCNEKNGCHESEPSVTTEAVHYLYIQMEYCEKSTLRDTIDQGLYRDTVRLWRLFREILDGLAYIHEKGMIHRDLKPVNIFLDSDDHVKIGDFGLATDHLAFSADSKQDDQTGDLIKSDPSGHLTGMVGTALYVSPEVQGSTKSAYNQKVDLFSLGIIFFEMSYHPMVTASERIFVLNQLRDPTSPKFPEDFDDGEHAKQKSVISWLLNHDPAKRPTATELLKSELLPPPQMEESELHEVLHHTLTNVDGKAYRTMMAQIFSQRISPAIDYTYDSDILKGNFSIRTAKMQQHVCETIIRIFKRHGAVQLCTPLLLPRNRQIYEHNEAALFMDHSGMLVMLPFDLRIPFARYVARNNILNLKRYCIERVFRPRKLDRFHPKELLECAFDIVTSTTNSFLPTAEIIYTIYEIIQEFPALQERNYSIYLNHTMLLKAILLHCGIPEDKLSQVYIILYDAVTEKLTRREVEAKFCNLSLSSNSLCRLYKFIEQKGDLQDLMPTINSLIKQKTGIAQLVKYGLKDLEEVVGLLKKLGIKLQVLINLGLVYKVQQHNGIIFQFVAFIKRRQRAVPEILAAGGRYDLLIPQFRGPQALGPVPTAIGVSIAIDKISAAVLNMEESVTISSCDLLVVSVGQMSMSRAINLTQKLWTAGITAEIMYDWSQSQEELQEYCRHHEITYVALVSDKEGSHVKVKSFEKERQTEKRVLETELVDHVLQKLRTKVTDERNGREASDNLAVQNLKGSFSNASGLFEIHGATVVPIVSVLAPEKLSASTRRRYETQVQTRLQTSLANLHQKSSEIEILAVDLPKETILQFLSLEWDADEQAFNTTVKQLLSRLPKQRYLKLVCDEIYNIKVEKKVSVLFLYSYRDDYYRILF
High affinity nerve growth factor receptor, sequence (P04629 33-796 limits assumed): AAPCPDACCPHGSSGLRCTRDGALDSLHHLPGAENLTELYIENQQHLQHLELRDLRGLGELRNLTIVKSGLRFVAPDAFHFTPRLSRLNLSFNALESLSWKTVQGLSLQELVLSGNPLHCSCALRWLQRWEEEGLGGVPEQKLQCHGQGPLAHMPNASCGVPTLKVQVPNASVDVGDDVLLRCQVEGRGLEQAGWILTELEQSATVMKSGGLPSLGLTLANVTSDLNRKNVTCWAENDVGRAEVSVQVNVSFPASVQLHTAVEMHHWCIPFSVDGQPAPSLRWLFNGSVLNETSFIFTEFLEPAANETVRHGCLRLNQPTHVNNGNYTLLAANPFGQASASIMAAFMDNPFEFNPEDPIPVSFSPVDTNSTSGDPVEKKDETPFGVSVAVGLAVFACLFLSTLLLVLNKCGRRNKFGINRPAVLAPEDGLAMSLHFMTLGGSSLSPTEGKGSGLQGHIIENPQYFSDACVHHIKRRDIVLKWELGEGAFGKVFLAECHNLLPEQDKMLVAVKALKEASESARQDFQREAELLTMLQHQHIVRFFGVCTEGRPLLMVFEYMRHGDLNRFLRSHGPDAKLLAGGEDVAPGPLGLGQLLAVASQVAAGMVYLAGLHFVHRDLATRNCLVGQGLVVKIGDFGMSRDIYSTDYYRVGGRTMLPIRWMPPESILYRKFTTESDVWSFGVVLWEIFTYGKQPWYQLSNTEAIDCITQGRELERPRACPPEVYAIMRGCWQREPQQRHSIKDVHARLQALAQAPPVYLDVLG
Serine/threonine-protein kinase MARK2 (Homo sapiens), sequence (Q7KZI7 whole entry): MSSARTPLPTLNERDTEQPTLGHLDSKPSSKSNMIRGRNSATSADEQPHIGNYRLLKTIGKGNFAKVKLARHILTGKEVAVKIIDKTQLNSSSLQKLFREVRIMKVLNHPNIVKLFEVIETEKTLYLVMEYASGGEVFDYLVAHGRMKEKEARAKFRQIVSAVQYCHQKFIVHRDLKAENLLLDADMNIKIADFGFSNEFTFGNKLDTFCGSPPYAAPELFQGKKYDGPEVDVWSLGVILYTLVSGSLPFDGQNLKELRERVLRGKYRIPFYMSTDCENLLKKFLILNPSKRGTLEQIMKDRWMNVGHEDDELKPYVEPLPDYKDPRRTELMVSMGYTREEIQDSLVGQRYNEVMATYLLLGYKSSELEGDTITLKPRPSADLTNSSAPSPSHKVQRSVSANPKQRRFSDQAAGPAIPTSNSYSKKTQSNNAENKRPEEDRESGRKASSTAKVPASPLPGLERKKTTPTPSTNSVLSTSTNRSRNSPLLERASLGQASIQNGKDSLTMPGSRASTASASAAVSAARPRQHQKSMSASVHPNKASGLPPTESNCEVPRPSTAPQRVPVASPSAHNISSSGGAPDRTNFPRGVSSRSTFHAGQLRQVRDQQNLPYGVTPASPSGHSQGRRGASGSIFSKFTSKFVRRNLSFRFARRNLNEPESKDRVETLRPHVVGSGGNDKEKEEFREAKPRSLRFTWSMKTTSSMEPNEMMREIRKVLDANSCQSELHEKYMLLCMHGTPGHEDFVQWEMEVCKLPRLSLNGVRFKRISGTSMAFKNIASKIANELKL

Compound: Nc1cnc(N2CCc3cc(S(=O)(=O)Nc4c(F)cc(Cl)cc4F)cc(N4CCCC4=O)c32)nc1 [TP-020n]
% of control [1]: 100% | % of control [2]: 69% | % of control [3]: 69%

% of control [4]: 108%
Compound: CC(=O)Nc1cccc(-n2c(=O)n(C3CC3)c(=O)c3c(Nc4ccc(I)cc4F)n(C)c(=O)c(C)c32)c1

Compound: O[C@H]1CC[C@H](Nc2ncc3nc(Nc4c(F)cc(F)cc4F)n([C@H]4CCOC4)c3n2)CC1
% of control [5]: 100% | % of control [6]: 99%

Compound: CNC(=O)Nc1ccc(-c2nc(N3CC4CCC(C3)O4)c3cnn(C4CCC5(CC4)OCCO5)c3n2)cc1
% of inhibition [7]: 7% | % of control [8]: 100%

Compound: N#Cc1cccc(-c2c[nH]c3ncnc(N4CCOCC4)c23)c1
% of control [9]: 75%

Compound: COCC(=O)NC/C=C/c1ccc2ncnc(Nc3ccc(Oc4ccc(C)nc4)c(C)c3)c2c1 [CP-724714]
% of control [10]: 85%

% of growth rate [11]: -22.5%
Compound: CNCCN1CCC(c2cc(CN(C)C(=O)c3cccc(Oc4ccccc4)c3)ccn2)CC1

% of inhibition [12]: 4.2% | % of inhibition [13]: 3.6%
Compound: CC[C@@H]1[C@H](F)C(=O)N[C@@H]1COc1nccc2cc(C(N)=O)c(OC)cc12 [ZIMLOVISERTIB]

% of control ([14]; at 1 µM): 103% | % of control ([14]; at 5 µM): 75%
Compound: C=CC(=O)Nc1cccc(C(=O)Nc2ccc(Nc3cc(-c4[nH]c(SC)nc4C)ccn3)cc2)c1

Compound: CN(C)C(=O)Cn1cc(-c2ccc(-c3cncc4ccccc34)cc2)cn1
% of control [15]: 59%
